Laboratory results as given in patent US20250263753A1, “BRIDGED CYCLE-BASED INHIBITORS OF DNA-DEPENDENT PROTEIN KINASE AND COMPOSITIONS AND APPLICATION IN GENE EDITING” (Juno Therapeutics, Inc., priority 2023, published 2025).
Read-outs that look alike come from different tables or passages of the source.

What was measured:
[1] = target: PI3Kδ (His-PIK3CD/PIK3R1, p110 delta/p85 alpha) (Homo sapiens (Human), UniProt O00329); assay: PI3Kδ biochemical assay (HTRF/FRET probe); type: binding; settings: class symbol
Sequence of PI3Kδ (His-PIK3CD/PIK3R1, p110 delta/p85 alpha) (O00329 whole entry, species assumed): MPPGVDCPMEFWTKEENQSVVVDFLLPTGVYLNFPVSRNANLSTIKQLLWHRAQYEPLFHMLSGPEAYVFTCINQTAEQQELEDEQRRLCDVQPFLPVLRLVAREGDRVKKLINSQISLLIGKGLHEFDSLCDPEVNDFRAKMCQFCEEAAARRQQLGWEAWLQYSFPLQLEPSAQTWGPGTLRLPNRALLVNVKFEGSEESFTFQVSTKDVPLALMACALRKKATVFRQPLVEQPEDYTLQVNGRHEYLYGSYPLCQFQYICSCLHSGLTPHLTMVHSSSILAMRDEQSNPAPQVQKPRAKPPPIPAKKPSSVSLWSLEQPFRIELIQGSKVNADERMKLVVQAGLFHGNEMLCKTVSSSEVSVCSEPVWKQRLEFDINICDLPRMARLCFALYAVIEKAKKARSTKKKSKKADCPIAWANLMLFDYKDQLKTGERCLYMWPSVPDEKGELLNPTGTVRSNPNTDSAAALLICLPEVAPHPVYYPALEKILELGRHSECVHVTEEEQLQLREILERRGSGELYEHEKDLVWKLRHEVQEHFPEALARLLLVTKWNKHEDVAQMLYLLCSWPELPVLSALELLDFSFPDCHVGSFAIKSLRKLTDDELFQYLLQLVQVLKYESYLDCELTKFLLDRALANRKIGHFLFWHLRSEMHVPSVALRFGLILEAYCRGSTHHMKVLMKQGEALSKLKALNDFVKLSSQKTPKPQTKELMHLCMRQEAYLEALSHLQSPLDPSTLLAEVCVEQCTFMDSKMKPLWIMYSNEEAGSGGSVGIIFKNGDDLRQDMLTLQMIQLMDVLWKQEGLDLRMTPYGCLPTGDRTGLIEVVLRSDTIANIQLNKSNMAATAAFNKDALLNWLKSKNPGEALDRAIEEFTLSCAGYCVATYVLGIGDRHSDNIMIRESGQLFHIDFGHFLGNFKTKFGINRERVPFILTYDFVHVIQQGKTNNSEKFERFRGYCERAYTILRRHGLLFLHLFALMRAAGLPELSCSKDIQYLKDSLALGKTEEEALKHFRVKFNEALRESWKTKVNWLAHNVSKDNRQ
Sequence of PI3Kδ (His-PIK3CD/PIK3R1, p110 delta/p85 alpha) (P27986 whole entry partner, species assumed): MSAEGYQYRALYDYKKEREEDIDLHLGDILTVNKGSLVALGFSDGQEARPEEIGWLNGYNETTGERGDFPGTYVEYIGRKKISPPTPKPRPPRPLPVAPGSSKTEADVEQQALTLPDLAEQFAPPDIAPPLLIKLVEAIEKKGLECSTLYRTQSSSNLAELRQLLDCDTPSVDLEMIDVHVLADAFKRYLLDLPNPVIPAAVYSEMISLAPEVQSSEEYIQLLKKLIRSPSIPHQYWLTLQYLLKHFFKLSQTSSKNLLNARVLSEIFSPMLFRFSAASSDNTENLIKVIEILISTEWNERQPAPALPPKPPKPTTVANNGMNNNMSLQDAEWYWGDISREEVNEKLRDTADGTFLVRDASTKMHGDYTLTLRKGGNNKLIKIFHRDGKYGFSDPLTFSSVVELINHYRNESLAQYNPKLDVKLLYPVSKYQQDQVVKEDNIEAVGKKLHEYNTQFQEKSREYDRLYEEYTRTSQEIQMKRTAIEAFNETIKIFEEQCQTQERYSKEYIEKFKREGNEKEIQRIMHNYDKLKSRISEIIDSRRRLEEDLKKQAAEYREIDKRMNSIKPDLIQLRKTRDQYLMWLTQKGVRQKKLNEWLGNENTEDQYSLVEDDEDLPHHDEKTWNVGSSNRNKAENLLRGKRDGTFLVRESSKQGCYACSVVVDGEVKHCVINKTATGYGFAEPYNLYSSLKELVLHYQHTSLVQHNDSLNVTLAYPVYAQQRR
Experimental: Phosphoinositide 3-kinase (PI3K) Biochemical Assay: A solution was prepared containing 0.2 nM Anti-HIS-Terbium (Cisbio, 64CUSTAZU), 40 nM designed-probe and 1.0 nM His-PIK3CD/PIK3R1 (p110 delta/p85 alpha) in FRET Buffer (20 mM HEPES, 10 mM MgCl2, 0.015% Brij-35, 4 mM DTT, 0.05 mg/mL BSA).

DNA-PK = DNA-PK (Homo sapiens (Human), UniProt P78527); assay: DNA-PK biochemical assay (Reaction Biology HotSpot kinase assay, 10 μM ATP)
Experimental: DNA-PK Biochemical Assay Using Reaction Biology's HotSpot Kinase Assay Protocol:
Reagent: Base Reaction buffer; 20 mM Hepes (pH 7.5), 10 mM MgCl2, 1 mM EGTA, 0.01% Brij35, 0.02 mg/ml BSA, 0.1 mM Na3VO4, 2 mM DTT, 1% DMSO Required cofactors are added individually to each kinase reaction.
Reaction Procedure: 1. Prepare substrate in freshly prepared Reaction Buffer; 2. Deliver any required cofactors to the substrate solution above; 3. Deliver kinase into the substrate solution and gently mix; 4. Deliver compounds in 100% DMSO into the kinase reaction mixture by Acoustic technology (Echo550; nanoliter range), incubate for 20 min at room temperature; 5. Deliver 33P-ATP into the reaction mixture to initiate the reaction; 6. Incubate for 2 hours at room temperature; 7. Detect kinase activity by P81 filter-binding method.

[2] = target: PI3Kα (His-PIK3CA/PIK3R1, p110 alpha/p85 alpha) (Homo sapiens (Human), UniProt P42336); assay: PI3Kα biochemical assay (HTRF/FRET probe); type: binding; settings: class symbol
Sequence of PI3Kα (His-PIK3CA/PIK3R1, p110 alpha/p85 alpha) (P42336 whole entry, species assumed): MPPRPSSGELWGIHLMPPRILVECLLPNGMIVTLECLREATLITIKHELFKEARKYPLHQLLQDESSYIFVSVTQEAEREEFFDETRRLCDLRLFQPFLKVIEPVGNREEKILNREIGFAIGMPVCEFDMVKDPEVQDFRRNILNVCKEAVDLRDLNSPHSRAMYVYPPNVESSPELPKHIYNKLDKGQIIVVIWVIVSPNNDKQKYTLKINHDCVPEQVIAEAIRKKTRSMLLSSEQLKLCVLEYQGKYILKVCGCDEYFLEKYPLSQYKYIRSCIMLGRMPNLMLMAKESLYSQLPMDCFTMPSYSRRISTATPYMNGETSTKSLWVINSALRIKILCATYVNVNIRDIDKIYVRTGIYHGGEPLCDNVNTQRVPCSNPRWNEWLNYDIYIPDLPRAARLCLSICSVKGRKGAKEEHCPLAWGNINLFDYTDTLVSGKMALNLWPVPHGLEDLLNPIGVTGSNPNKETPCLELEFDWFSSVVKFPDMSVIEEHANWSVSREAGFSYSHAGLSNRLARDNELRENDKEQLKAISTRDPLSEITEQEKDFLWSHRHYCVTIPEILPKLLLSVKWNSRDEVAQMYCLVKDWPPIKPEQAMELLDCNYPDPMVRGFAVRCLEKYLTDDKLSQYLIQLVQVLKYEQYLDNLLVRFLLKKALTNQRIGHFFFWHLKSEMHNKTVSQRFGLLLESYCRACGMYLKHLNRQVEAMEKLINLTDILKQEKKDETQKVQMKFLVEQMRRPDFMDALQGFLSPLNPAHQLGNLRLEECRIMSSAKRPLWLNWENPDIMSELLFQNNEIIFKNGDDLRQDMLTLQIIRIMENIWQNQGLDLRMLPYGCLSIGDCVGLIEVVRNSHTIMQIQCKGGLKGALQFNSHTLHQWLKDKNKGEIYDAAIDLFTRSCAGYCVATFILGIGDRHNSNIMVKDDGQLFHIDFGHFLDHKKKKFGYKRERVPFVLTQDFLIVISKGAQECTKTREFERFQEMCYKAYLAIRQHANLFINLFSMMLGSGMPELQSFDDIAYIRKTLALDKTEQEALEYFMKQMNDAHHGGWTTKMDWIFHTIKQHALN
Sequence of PI3Kα (His-PIK3CA/PIK3R1, p110 alpha/p85 alpha) (P27986 whole entry partner, species assumed): as the sequence (P27986 whole entry partner, species assumed) above
Experimental: Phosphoinositide 3-kinase α (PI3Kα) Biochemical Assay: A solution was prepared containing 0.2 nM Anti-HIS-Terbium (Cisbio, 64CUSTAZU), 3.7 nM designed-probe and 1.0 nM His-PIK3CA/PIK3R1 (p110 alpha/p85 alpha) in FRET Buffer (20 mM HEPES, 10 mM MgCl2, 0.015% Brij-35, 4 mM DTT, 0.05 mg/mL BSA).

ATM = ATM (Homo sapiens (Human), UniProt Q13315); assay: ATM biochemical assay (Reaction Biology HTRF kinase assay, 10 μM ATP)
Experimental: Ataxia-Telangiectasia Mutated (ATM) Biochemical Assay Using Reaction Biology's HTRF Kinase Assay Protocol:
The assay detects kinase activity by antibody based HTRF assay. The GST-tagged p53 protein serves as substrate and Eu-labeled-antibody with specific phosphorylation site binds upon phosphorylation which is monitored by HTRF from the anti-GST-d2.
Reagent: Reaction buffer; 50 mM Hepes (pH 7.5), 150 mM NaCl, 10 mM MnCl2, 1% Glycerol, 0.01% Brij35, 1 mM DTT, 1% DMSO.
Substrate: Human p53 (aa2-393), RBC produced in E. coli, N-terminal GST-Tag, MW=70.42 kDa.
Detection; MAb Anti-p53-pS15-Eu cryptate, CisBio cat #61P08KAZ; MAb Anti GST-d2
Reaction Procedure: 1. Deliver 2× Enzyme in wells of reaction plate except No E control wells. Add buffer instead; 2. Deliver compounds in 100% DMSO into the kinase reaction mixture by Acoustic technology (Echo550; nanoliter range), incubate for 30 min at room temperature; 3. Deliver 2× substrate+ATP mixture into the reaction mixture to initiate the reaction; 4. Incubate for 2 hours at room temperature.
HTRF Detection: 1. Deliver 2× Stop/Detection mixture and incubate for 2 hours to overnight in the dark. 2. HTRF measurement (Ex/Em1/Em2=320/615/665 nm) in EnVision.

[3] = read-out: DNA-PK HotSpot 10 μM ATP IC50, class symbol
[4] = read-out: ATM HTRF 10 μM ATP IC50, class symbol

## Cc1cc2ncnn2cc1Nc1ncc2c(n1)N(C13CC(F)(C1)C3)C(=O)C21CC1 [Compound 70, 7′-(3-fluorobicyclo[1.1.1]pentan-1-yl)-2′-((7-methyl-[1,2,4]triazolo[1,5-a]pyridin-6-yl)amino)spiro[cyclopropane-1,5′-pyrrolo[2,3-d]pyrimidin]-6′(7′H)-one]
[1]
  IC50: ≥ 1000 nM
DNA-PK; [3]
  IC50: < 1 nM
[2]
  IC50: ≥ 1000 nM
ATM; class symbol
  IC50: 100 to 1000 nM

## Cc1cc2nsnc2cc1Nc1ncc2c(n1)N(C13CC(F)(C1)C3)C(=O)C21CC1 [Compound 73, 7′-(3-fluorobicyclo[1.1.1]pentan-1-yl)-2′-((6-methylbenzo[c][1,2,5]thiadiazol-5-yl)amino)spiro[cyclopropane-1,5′-pyrrolo[2,3-d]pyrimidin]-6′(7′H)-one]
[1]
  IC50: ≥ 1000 nM
DNA-PK; [3]
  IC50: < 1 nM
[2]
  IC50: 100 to 1000 nM
ATM; [4]
  IC50: ≥ 1000 nM

## COC12CCC(n3c(=O)n(C)c4cnc(Nc5cc6nsnc6cc5C)nc43)(C1)C2 [Compound 30, 9-(4-methoxybicyclo[2.1.1]hexan-1-yl)-7-methyl-2-((6-methylbenzo[c][1,2,5]thiadiazol-5-yl)amino)-7,9-dihydro-8H-purin-8-one]
[1]
  IC50: ≥ 1000 nM
DNA-PK; [3]
  IC50: < 1 nM
[2]
  IC50: 100 to 1000 nM
ATM; class symbol
  IC50: 100 to 1000 nM

## Cc1cc2c(cc1Nc1ncc3c(n1)N(C14CC(F)(C1)C4)C(=O)C31CC1)OCO2 [Compound 76, 7′-(3-fluorobicyclo[1.1.1]pentan-1-yl)-2′-((6-methylbenzo[d][1,3]dioxol-5-yl)amino)spiro[cyclopropane-1,5′-pyrrolo[2,3-d]pyrimidin]-6′(7′H)-one]
[1]
  IC50: ≥ 1000 nM
DNA-PK; class symbol
  IC50: 1 to 10 nM
[2]
  IC50: ≥ 1000 nM
ATM; [4]
  IC50: ≥ 1000 nM

## COC12CCC(n3c(=O)n(C)c4cnc(Nc5cc6nsnc6cc5C)nc43)(CC1)C2 [Compound 8, 9-(4-methoxybicyclo[2.2.1]heptan-1-yl)-7-methyl-2-((6-methylbenzo[c][1,2,5]thiadiazol-5-yl)amino)-7,9-dihydro-8H-purin-8-one]
[1]
  IC50: 100 to 1000 nM
DNA-PK; [3]
  IC50: < 1 nM
[2]
  IC50: 10 to 100 nM
ATM; class symbol
  IC50: 10 to 100 nM

## Cc1cc2nonc2cc1Nc1ncc2c(n1)N(C13CCC(O)(CC1)C3)CC(=O)N2C [Compound 60, 8-(4-hydroxybicyclo[2.2.1]heptan-1-yl)-5-methyl-2-((6-methylbenzo[c][1,2,5]oxadiazol-5-yl)amino)-7,8-dihydropteridin-6(5H)-one]
[1]
  IC50: 100 to 1000 nM
DNA-PK; [3]
  IC50: < 1 nM
[2]
  IC50: 100 to 1000 nM
ATM; class symbol
  IC50: 10 to 100 nM

## Cc1cc2c(cc1Nc1ncc3c(n1)n(C14CC(C#N)(C1)C4)c(=O)n3C)OCO2 [Compound 17, 3-(7-methyl-2-((6-methylbenzo[d][1,3]dioxol-5-yl)amino)-8-oxo-7,8-dihydro-9H-purin-9-yl) bicyclo[1.1.1]pentane-1-carbonitrile]
[1]
  IC50: ≥ 1000 nM
DNA-PK; class symbol
  IC50: 1 to 10 nM
[2]
  IC50: ≥ 1000 nM
ATM; class symbol
  IC50: 100 to 1000 nM

## COC12CCC(n3c(=O)n(C)c4cnc(Nc5cc(F)c(-c6cnco6)cc5C)nc43)(C1)C2 [Compound 41, 2-((5-fluoro-2-methyl-4-(oxazol-5-yl)phenyl)amino)-9-(4-methoxybicyclo[2.1.1]hexan-1-yl)-7-methyl-7,9-dihydro-8H-purin-8-one]
[1]
  IC50: ≥ 1000 nM
DNA-PK; class symbol
  IC50: 1 to 10 nM
[2]
  IC50: 100 to 1000 nM
ATM; class symbol
  IC50: 1 to 10 nM

## COC12CCC(N3CC(=O)N(C)c4cnc(Nc5cc6c(cc5C)OCO6)nc43)(CC1)C2 [Compound 63, 8-(4-methoxybicyclo[2.2.1]heptan-1-yl)-5-methyl-2-((6-methylbenzo[d][1,3]dioxol-5-yl)amino)-7,8-dihydropteridin-6(5H)-one]
[1]
  IC50: 100 to 1000 nM
DNA-PK; class symbol
  IC50: 1 to 10 nM
[2]
  IC50: ≥ 1000 nM
ATM; class symbol
  IC50: 100 to 1000 nM

## Cc1cc2c(cc1Nc1ncc3c(C)nn(C45CC(C4)C5)c3n1)OCO2 [Compound 48, 1-(bicyclo[1.1.1]pentan-1-yl)-3-methyl-N-(6-methylbenzo[d][1,3]dioxol-5-yl)-1H-pyrazolo[3,4-d]pyrimidin-6-amine]
[1]
  IC50: ≥ 1000 nM
DNA-PK; class symbol
  IC50: 1 to 10 nM
[2]
  IC50: ≥ 1000 nM
ATM; class symbol
  IC50: 100 to 1000 nM

## Cc1cc2nnccc2cc1Nc1ncc2c(n1)N(C13CCC(O)(CC1)C3)CC(=O)N2C [Compound 61, 8-(4-hydroxybicyclo[2.2.1]heptan-1-yl)-5-methyl-2-((7-methylcinnolin-6-yl)amino)-7,8-dihydropteridin-6(5H)-one]
[1]
  IC50: 100 to 1000 nM
DNA-PK; [3]
  IC50: < 1 nM
[2]
  IC50: 10 to 100 nM
ATM; class symbol
  IC50: 1 to 10 nM

## Cc1cc2nsnc2cc1Nc1ncc2c(C)nn(C34CC(C3)C4)c2n1 [Compound 50, N-(1-(bicyclo[1.1.1]pentan-1-yl)-3-methyl-1H-pyrazolo[3,4-d]pyrimidin-6-yl)-6-methylbenzo[c][1,2,5]thiadiazol-5-amine]
[1]
  IC50: ≥ 1000 nM
DNA-PK; [3]
  IC50: < 1 nM
[2]
  IC50: ≥ 1000 nM
ATM; class symbol
  IC50: 10 to 100 nM

## Cc1cc2nsnc2cc1Nc1ncc2c(n1)n(C13CC(F)(C1)C3)c(=O)n2C [Compound 14, 9-(3-fluorobicyclo[1.1.1]pentan-1-yl)-7-methyl-2-((6-methylbenzo[c][1,2,5]thiadiazol-5-yl)amino)-7,9-dihydro-8H-purin-8-one]
[1]
  IC50: ≥ 1000 nM
DNA-PK; [3]
  IC50: < 1 nM
[2]
  IC50: 100 to 1000 nM
ATM; class symbol
  IC50: 100 to 1000 nM

## Cc1cc2ncnn2cc1Nc1ncc2c(C)nn(C34CC(C3)C4)c2n1 [Compound 47, 1-(bicyclo[1.1.1]pentan-1-yl)-3-methyl-N-(7-methyl-[1,2,4]triazolo[1,5-a]pyridin-6-yl)-1H-pyrazolo[3,4-d]pyrimidin-6-amine]
[1]
  IC50: ≥ 1000 nM
DNA-PK; class symbol
  IC50: 1 to 10 nM
[2]
  IC50: ≥ 1000 nM
ATM; class symbol
  IC50: 100 to 1000 nM

## Cc1cc2nccnc2cc1Nc1ncc2c(C)nn(C34CC(C3)C4)c2n1 [Compound 49, N-(1-(bicyclo[1.1.1]pentan-1-yl)-3-methyl-1H-pyrazolo[3,4-d]pyrimidin-6-yl)-7-methylquinoxalin-6-amine]
[1]
  IC50: 100 to 1000 nM
DNA-PK; [3]
  IC50: < 1 nM
[2]
  IC50: 100 to 1000 nM
ATM; class symbol
  IC50: 10 to 100 nM

## Cc1cc(-c2cnn(C)c2)ncc1Nc1ncc2c(n1)N(C13CC(F)(C1)C3)C(=O)C21CC1 [Compound 75, 7′-(3-fluorobicyclo[1.1.1]pentan-1-yl)-2′-((4-methyl-6-(1-methyl-1H-pyrazol-4-yl)pyridin-3-yl)amino)spiro[cyclopropane-1,5′-pyrrolo[2,3-d]pyrimidin]-6′(7′H)-one]
[1]
  IC50: ≥ 1000 nM
DNA-PK; class symbol
  IC50: 1 to 10 nM
[2]
  IC50: 100 to 1000 nM
ATM; class symbol
  IC50: 10 to 100 nM

## COC12CCC(N3CC(=O)N(C)c4cnc(Nc5cn6ncnc6cc5C)nc43)(CC1)C2 [Compound 62, 8-(4-methoxybicyclo[2.2.1]heptan-1-yl)-5-methyl-2-((7-methyl-[1,2,4]triazolo[1,5-a]pyridin-6-yl)amino)-7,8-dihydropteridin-6(5H)-one]
[1]
  IC50: ≥ 1000 nM
DNA-PK; [3]
  IC50: < 1 nM
[2]
  IC50: ≥ 1000 nM
ATM; class symbol
  IC50: 10 to 100 nM

## Cc1cc2c(cc1Nc1ncc3c(n1)n(C14CCC(O)(CC1)C4)c(=O)n3C)OCCO2 [Compound 5, 9-(4-hydroxybicyclo[2.2.1]heptan-1-yl)-7-methyl-2-((7-methyl-2,3-dihydrobenzo[b][1,4]dioxin-6-yl)amino)-7,9-dihydro-8H-purin-8-one]
[1]
  IC50: ≥ 1000 nM
DNA-PK; [3]
  IC50: < 1 nM
[2]
  IC50: 100 to 1000 nM
ATM; class symbol
  IC50: 10 to 100 nM

## COC12CCC(n3c(=O)n(C)c4cnc(Nc5cc6c(cc5C)OCCO6)nc43)(CC1)C2 [Compound 10, 9-(4-methoxybicyclo[2.2.1]heptan-1-yl)-7-methyl-2-((7-methyl-2,3-dihydrobenzo[b][1,4]dioxin-6-yl)amino)-7,9-dihydro-8H-purin-8-one]
[1]
  IC50: ≥ 1000 nM
DNA-PK; [3]
  IC50: < 1 nM
[2]
  IC50: 10 to 100 nM
ATM; class symbol
  IC50: 100 to 1000 nM
